What was measured:
K562 = experiment: Cytotoxicity on K562 cancer cell line; type: cell-based; details: Homo sapiens; K562 chronic myelogenous leukemia; 96 h; 0.01-100 μM
Description: (§1) The effect of the compounds described herein on tumor cells was determined by the assay described by Latham et al., Oncogene 12:827-837 (1996). Tumor cells K562 (chronic myelogenous leukemia; leukemia cell line +ve for Bcr-Abl) or DU145 (prostate cancer) were plated in 12-well dishes at a cell density of 2.5×10^4 cells per well. The plated cells were treated 24 h. later with a DMSO solution of a compound as described herein at multiple concentrations ranging from 0.01 μM to 100 μM. The plates were examined 96 h. later under an inverted microscope, Olympus CK-2 using a 10× objective, and compound activity was noted by physical observation. When necessary, the total number of viable cells was determined by trypsinizing the wells and counting the number of viable cells, as determined by trypan blue exclusion, using a hemacytometer.

DU145 = experiment: Cytotoxicity on DU145 cancer cell line; type: cell-based; details: Homo sapiens, DU-145; DU145 prostate cancer; 96 h; 0.01-100 μM
Description: as §1

Row | Structure (SMILES) | IC50 (K562) [nM] | IC50 (DU145) [nM]
1 | CN1CCN(c2ccc(Nc3ncc(/C=C/C#N)c(NC4CC4)n3)cc2)CC1 [Compound 8g, 3-{4-Cyclopropylamino-2-[4-(4-methylpiperazin-1-yl)phenylamino]pyrimidin-5-yl}acrylonitrile] | < 1000 | < 1000
2 | CC(C)Nc1nc(Nc2ccc(N3CCN(C)CC3)cc2)ncc1/C=C/C#N [Compound 8e, 3-{4-Isopropylamino-2-[4-(4-methylpiperazin-1-yl)phenylamino]pyrimidin-5-yl}acrylonitrile] | < 1000 | < 1000
3 | CCOC(=O)/C=C/c1cnc(Nc2ccc(N3CCN(C)CC3)cc2)nc1NC1CCCC1 [Compound 21, (E)-3-[4-(Cyclopentylamino)-2-{[4-(4-methylpiperazin-1-yl)phenyl]amino}pyrimidin-5-yl]acrylic acid ethyl ester] | < 1000 | 1000 to 25000
4 | Cn1ccc(Nc2nc(Nc3ccc(N4CCOCC4)cc3)ncc2/C=C/S(=O)(=O)c2ccc(F)cc2F)n1 [Compound 15t, (E)-5-{2-[(2,4-Difluorophenyl)sulfonyl]vinyl}-N-(1-methyl-1H-pyrazol-3-yl)-N^2-(4-morpholinophenyl)pyrimidine-2,4-diamine] | 1000 to 25000 | 1000 to 25000
5 | N#C/C=C/c1cnc(NCc2ccccc2)nc1NC1CCCC1 [Compound 8p, 3-[2-(Benzylamino)-4-(cyclopentylamino)pyrimidin-5-yl]acrylonitrile] | 25000 to 50000 | 25000 to 50000
6 | N#C/C=C/c1cnc(Nc2ccc(N3CCOCC3)cc2)nc1NCC1CC1 [Compound 8r, 3-{4-[N-(Cyclopropylmethyl)amino]-2-[4-(morpholin-4-yl)phenylamino]pyrimidin-5-yl}acrylonitrile] | < 1000 | < 1000
7 | CNc1nc(Nc2ccc3cc[nH]c3c2)ncc1/C=C/S(=O)(=O)c1ccc(F)cc1F [Compound 15c, 5-{2-[2,4-(Difluorophenyl)sulfonyl]vinyl}-N^2-(1H-indol-6-yl)-N^4-methylpyrimidine-2,4-diamine] | 1000 to 25000 | 1000 to 25000
8 | N#C/C=C/c1cnc(N2CCOCC2)nc1NC1CCCC1 [Compound 8z, (E)-3-[4-(Cyclopentylamino)-2-morpholinopyrimidin-5-yl]acrylonitrile] | 1000 to 25000 | 1000 to 25000
9 | CCN1CCN(c2ccc(Nc3ncc(/C=C/C#N)c(NCC4CC4)n3)cc2)CC1 [Compound 8t, 3-{4-[(Cyclopropylmethyl)amino]-2-[4-(4-ethylpiperazin-1-yl)phenylamino]pyrimidin-5-yl}acrylonitrile] | < 1000 | < 1000
10 | CN1CCN(c2ccc(Nc3ncc(/C=C/C#N)c(NC4CCCC4)n3)nc2)CC1 [Compound 8q, 3-(4-(Cyclopentylamino)-2-((5-(4-methylpiperazin-1-yl)pyridin-2-yl)amino)pyrimidin-5-yl)acrylonitrile] | < 1000 | < 1000
11 | CNc1nc(Nc2ccc3[nH]ccc3c2)ncc1/C=C/S(=O)(=O)c1ccc(F)cc1F [Compound 15a, 5-{2-[2,4-(Difluorophenyl)sulfonyl]vinyl}-N^2-(1H-indol-5-yl)-N^4-methylpyrimidine-2,4-diamine] | 1000 to 25000 | 1000 to 25000
12 | CN1CCN(c2ccc(Nc3ncc(/C=C/C#N)c(Nc4ccn(C)n4)n3)cc2)CC1 [Compound 8aa, (E)-3-(4-[(1-Methyl-1H-pyrazol-3-yl)amino]-2-{[4-(4-methylpiperazin-1-yl)phenyl]amino}pyrimidin-5-yl)acrylonitrile] | 1000 to 25000 | 1000 to 25000
13 | Cn1ccc(Nc2nc(Nc3ccc4ncccc4c3)ncc2/C=C/S(=O)(=O)c2ccc(F)cc2F)n1 [Compound 15u, (E)-5-{2-[(2,4-Difluorophenyl)sulfonyl]vinyl}-N^4-(1-methyl-1H-pyrazol-3-yl)-N^2-(quinolin-6-yl)pyrimidine-2,4-diamine] | 1000 to 25000 | 1000 to 25000
14 | O=S(=O)(/C=C/c1cnc(N2CCOCC2)nc1NC1CCCC1)c1ccc(F)cc1N1CCOCC1 [Compound 15p, (E)-N-Cyclopentyl-5-{2-[(4-fluoro-2-morpholinophenyl)sulfonyl]vinyl}-2-morpholinopyrimidin-4-amine] | 50000 to 100000 | 1000 to 25000
15 | CN1CCN(c2ccc(Nc3ncc(/C=C/C#N)c(NCC4CC4)n3)cc2)CC1 [Compound 8f, 3-{4-(Cyclopropylmethyl)amino-2-[4-(4-methylpiperazin-1-yl)phenylamino]pyrimidin-5-yl}acrylonitrile] | < 1000 | < 1000
16 | CN1CCN(c2ccc(Nc3ncc(/C=C/C#N)c(N4CCCC4)n3)cc2)CC1 [Compound 8w, 3-{2-[4-(4-Methylpiperazin-1-yl)phenylamino]-4-(pyrrolidin-1-yl)pyrimidin-5-yl}acrylonitrile] | 1000 to 25000 | 1000 to 25000

Row | Structure (SMILES) | IC50 (K562) [nM] | IC50 (DU145) [nM]
17 | COc1ccc(S(=O)(=O)/C=C/c2cnc(Nc3ccc(N4CCN(C)CC4)cc3)nc2NC2CCCC2)cc1 [Compound 15j, (E)-N^4-Cyclopentyl-5-{2-[(4-methoxyphenyl)sulfonyl]vinyl}-N^2-[4-(4-methylpiperazin-1-yl)phenyl]pyrimidine-2,4-diamine] | 1000 to 25000 | 1000 to 25000
18 | CCCNc1nc(Nc2ccc(N3CCN(C)CC3)cc2)ncc1/C=C/C#N [Compound 8d, 3-{4-Propylamino-2-[4-(4-methylpiperazin-1-yl)phenylamino]pyrimidin-5-yl}acrylonitrile] | < 1000 | < 1000
19 | CN1CCN(c2ccc(Nc3ncc(/C=C/S(=O)(=O)c4ccc(F)cc4F)c(NC4CCCC4)n3)cc2)CC1 [Compound 15b, N^4-Cyclopentyl-5-{2-[(2,4-difluorophenyl)sulfonyl]vinyl}-N^2-[4-(4-methylpiperazin-1-yl)phenyl]pyrimidine-2,4-diamine] | 1000 to 25000 | 1000 to 25000
20 | CN1CCN(c2ccc(Nc3ncc(/C=C/C#N)c(NC4CCCCC4)n3)cc2)CC1 [Compound 8i, 3-{4-Cyclohexylamino-2-[4-(4-methylpiperazin-1-yl)phenylamino]pyrimidin-5-yl}acrylonitrile] | < 1000 | 1000 to 25000
21 | CNc1nc(Nc2ccc3[nH]ncc3c2)ncc1/C=C/S(=O)(=O)c1ccc(F)cc1F [Compound 15i, (E)-5-{2-[(2,4-Difluorophenyl)sulfonyl]vinyl}-N^2-(1H-indazol-5-yl)-N-methylpyrimidine-2,4-diamine] | 1000 to 25000 | 1000 to 25000
22 | COc1ccc(Nc2ncc(/C=C/S(=O)(=O)c3ccc(OC)cc3)c(NC3CCCC3)n2)cc1 [Compound 15m, (E)-N^4-Cyclopentyl-N^2-(4-methoxyphenyl)-5-{2-[(4-methoxyphenyl)sulfonyl]vinyl}pyrimidine-2,4-diamine] | 1000 to 25000 | 1000 to 25000
23 | COc1cc(N2CCN(C)CC2)ccc1Nc1ncc(/C=C/C#N)c(NC2CCCC2)n1 [Compound 8bb, (E)-3-[4-(Cyclopentylamino)-2-{[2-methoxy-4-(4-methylpiperazin-1-yl)phenyl]amino}pyrimidin-5-yl]acrylonitrile] | 1000 to 25000 | 1000 to 25000
24 | N#C/C=C/c1cnc(Nc2ccc3[nH]ccc3c2)nc1NC1CCCC1 [Compound 8k, 3-[4-Cyclopentylamino-2-(1H-indol-5-ylamino)pyrimidin-5-yl]acrylonitrile] | < 1000 | 1000 to 25000
25 | CN1CCN(c2ccc(N(C(=O)CCCC[C@@H]3SC[C@@H]4NC(=O)N[C@@H]43)c3ncc(/C=C/C#N)c(NC4CCCC4)n3)cc2)CC1 [Compound 8y, N-[5-(2-Cyanovinyl)-4-(cyclopentylamino)pyrimidin-2-yl]-N-[4-(4-methylpiperazin-1-yl)phenyl]-5-((3aS,4S,6aR)-2-oxohexahydro-1H-thieno[3,4-d]imidazol-4-yl)pentanamide] | 1000 to 25000 | 1000 to 25000
26 | CNc1nc(Nc2ccc(N3CCN(C)CC3)cc2)ncc1/C=C/S(=O)(=O)c1ccc(F)cc1F [Compound 15d, (E)-5-{2-[(2,4-Difluorophenyl)sulfonyl]vinyl}-N^4-methyl-N^2-[4-(4-methylpiperazin-1-yl)phenyl]pyrimidine-2,4-diamine] | 1000 to 25000 | 1000 to 25000
27 | COc1ccc(Nc2ncc(/C=C/C#N)c(NC3CCCC3)n2)cc1 [Compound 8n, 3-{4-(Cyclopentylamino)-2-[(4-methoxyphenyl)amino]pyrimidin-5-yl)acrylonitrile] | 1000 to 25000 | 1000 to 25000
28 | N#C/C=C/c1cnc(Nc2ccc(N3CCOCC3)cc2)nc1NC1CCCC1 [Compound 8j, 3-{4-Cyclopentylamino-2-[(4-morpholin-4-yl)phenylamino]pyrimidin-5-yl}acrylonitrile] | 1000 to 25000 | 1000 to 25000
29 | COc1ccc(S(=O)(=O)/C=C/c2cnc(N3CCOCC3)nc2NC2CCCC2)cc1 [Compound 15o, (E)-N-Cyclopentyl-5-{2-[(4-methoxyphenyl)sulfonyl]vinyl}-2-morpholinopyrimidin-4-amine] | 1000 to 25000 | 1000 to 25000
30 | CCN(C)c1nc(Nc2ccc(N3CCN(C)CC3)cc2)ncc1/C=C/C#N [Compound 8v, 3-{4-(N-Ethyl-N-methylamino)-2-[4-(4-methylpiperazin-1-yl)phenylamino]pyrimidin-5-yl}acrylonitrile] | 25000 to 50000 | 25000 to 50000
31 | CNc1nc(Nc2ccc3[nH]cnc3c2)ncc1/C=C/S(=O)(=O)c1ccc(F)cc1F [Compound 15n, (E)-N^2-(1H-Benzo[d]imidazol-5-yl)-5-{2-[(2,4-difluorophenyl)sulfonyl]vinyl}-N^4-methylpyrimidine-2,4-diamine] | 1000 to 25000 | 1000 to 25000
32 | CNc1nc(Nc2ccc3[nH]ccc3c2)ncc1/C=C/C#N [Compound 8m, 3-[2-(1H-Indol-5-ylamino)-4-(methylamino)pyrimidin-5-yl]acrylonitrile] | < 1000 | < 1000

Reference: patent publication US9815847B2 (Icahn School of Medicine at Mount Sinai, priority 2013, dated 2017)
